From patent US5760092A, “Allocolchinones and uses thereof” (Brandeis University, priority 1996, dated 1998)
Several values for one entry are separate records, joined by “and”; a condition that tells them apart may be missing. Identical values can stand only once. Entries after “also recorded” stand apart in the source; their conditions may differ. Like-named read-outs stand apart in the source and are kept apart here.

Experiments:
[1] = test system: RXF-393 renal cancer cells; assay: cells; conditions: Homo sapiens; for GI50: RXF 393; for activity at 10 µM: RXF 393, read-out: Percent Growth, log10 conc -5.0; for activity at 1 µM: RXF 393, read-out: Percent Growth, log10 conc -6.0; for activity at 0.1 µM: RXF 393, read-out: Percent Growth, log10 conc -7.0; for activity at 0.01 µM: RXF 393, read-out: Percent Growth, log10 conc -8.0
A498 renal cancer cells [2] = test system: A498 renal cancer cells
[3] = test system: HS 578T breast cancer cells
tubulin = format: biochemical, calf; conditions: in vitro; read-out: LC50 (inhibition of microtubule assembly in vitro)
[4] = test system: RXF-393 renal cancer cells
[5] = test system: HOP-92 non-small cell lung cancer cells; assay: cells; conditions: Homo sapiens
[6] = test system: SK-OV-3 ovarian cancer cells; assay: cells; conditions: Homo sapiens
[7] = test system: OVCAR-3 ovarian cancer cells
[8] = test system: CAKI-1 renal cancer cells; assay: cells; conditions: Homo sapiens
SF-295 CNS cancer cells [9] = assay: cells; conditions: Homo sapiens
[10] = test system: HOP-62 non-small cell lung cancer cells
[11] = test system: HOP-92 non-small cell lung cancer cells
[12] = test system: HS 578T breast cancer cells; assay: cells; conditions: Homo sapiens
tumor cell lines = assay: cells; format: cell-based
[13] = test system: SK-OV-3 ovarian cancer cells
A498 renal cancer cells [14] = assay: cells; conditions: Homo sapiens
[15] = test system: OVCAR-3 ovarian cancer cells; assay: cells; conditions: Homo sapiens
SF-295 CNS cancer cells [16] = test system: SF-295 CNS cancer cells
[17] = test system: OVCAR-8 ovarian cancer cells
[18] = test system: MCF7/ADR-RES breast cancer cells; assay: cells; format: cell-based
[19] = test system: HOP-62 non-small cell lung cancer cells; assay: cells; conditions: Homo sapiens

In the case of `CCCC(=O)NC1CCc2cc(OC)c(OC)c(OC)c2-c2ccc(C(C)=O)cc21` (centres unmarked), the GI50 [1] is reported as < 10 nM, the CC50 ([1]; RXF 393, read-out: LC50) is reported as > 100000 nM and the activity at 10 µM [1] is reported as 30%. The activity at 1 µM [1] was 39%, the activity at 0.1 µM [1] was 36% and the activity at 0.01 µM [1] was 18%. The GI50 (A498 renal cancer cells [2]) was < 10 nM, the CC50 (A498 renal cancer cells [2]; human, a498 renal cancer cells) was > 100000 nM and the “Percent Growth” value (A498 renal cancer cells [2]; log10 conc -6.0, 1 µM) was -40%. For the same molecule, the “Percent Growth” value (A498 renal cancer cells [2]; log10 conc -8.0) was 13%, the TGI [3] was > 100000 nM and the “Percent Growth” value ([3]; log10 conc -5.0, 10 µM) was 41%. For the same molecule, the “Percent Growth” value ([3]; log10 conc -6.0, 1 µM) was 43%, the “Percent Growth” value ([3]; log10 conc -7.0, 0.1 µM) was 31% and the IC50 (tubulin) was 600 nM. The TGI [4] was > 100000 nM, the “Percent Growth” value ([4]; log10 conc -5.0, 10 µM) was 26% and the “Percent Growth” value ([4]; log10 conc -6.0, 1 µM) was 40%. For the same molecule, the “Percent Growth” value ([4]; log10 conc -8.0, 0.01 µM) was 29%, the GI50 ([5]; HOP-92) was 17.6 nM and the CC50 ([5]; HOP-92, read-out: LC50) was > 100000 nM. For the same molecule, the GI50 ([6]; SK-OV-3) was < 10 nM, the CC50 ([6]; SK-OV-3, read-out: LC50) was > 100000 nM and the TGI [7] was < 10 nM. For the same molecule, the “Percent Growth” value ([7]; log10 conc -4.0, 100 µM) was -30%, the “Percent Growth” value ([7]; log10 conc -5.0) was -21% and the “Percent Growth” value ([7]; log10 conc -7.0, 0.1 µM) was -12%. For the same molecule, the “Percent Growth” value ([7]; log10 conc -8.0, 0.01 µM) was -16% and -19%, the GI50 ([8]; CAKI-1) was < 10 nM and the CC50 ([8]; CAKI-1, read-out: LC50) was > 100000 nM. The GI50 (SF-295 CNS cancer cells [9]; SF-295) was < 10 nM, the CC50 (SF-295 CNS cancer cells [9]; SF-295, read-out: LC50) was > 100000 nM and the activity at 100 µM (SF-295 CNS cancer cells [9]; SF-295, read-out: Percent Growth, log10 conc -4.0) was 21%. For the same molecule, the activity at 10 µM (SF-295 CNS cancer cells [9]; SF-295, read-out: Percent Growth, log10 conc -5.0) was 10%, the GI50 (SF-539 CNS cancer cells) was < 10 nM and the TGI (SF-539 CNS cancer cells) was 12.9 nM. For the same molecule, the CC50 (SF-539 CNS cancer cells; human, sf-539 cns cancer cells) was > 100000 nM, the “Percent Growth” value (SF-539 CNS cancer cells; log10 conc -4.0, 100 µM) was -8% and 1% and the “Percent Growth” value (SF-539 CNS cancer cells; log10 conc -5.0, 10 µM) was -13% and -12%. The “Percent Growth” value (SF-539 CNS cancer cells; log10 conc -6.0, 1 µM) was -8% and -16%, the “Percent Growth” value (SF-539 CNS cancer cells; log10 conc -7.0, 0.1 µM) was -13% and -11% and the “Percent Growth” value (SF-539 CNS cancer cells; log10 conc -8.0) was 2%. The “Percent Growth” value (SF-539 CNS cancer cells; log10 conc -8.0, 0.01 µM) was -8%, the TGI [10] was > 100000 nM and the “Percent Growth” value ([10]; log10 conc -4.0, 100 µM) was 34%. For the same molecule, the “Percent Growth” value ([10]; log10 conc -5.0, 10 µM) was 44%, the “Percent Growth” value ([10]; log10 conc -6.0, 1 µM) was 34% and the “Percent Growth” value ([10]; log10 conc -7.0, 0.1 µM) was 25% and 46%. For the same molecule, the GI50 (U251 CNS cancer cells) was < 10 nM, the CC50 (U251 CNS cancer cells; human, u251 cns cancer cells) was > 100000 nM and the “Percent Growth” value (U251 CNS cancer cells; log10 conc -5.0) was 5%. For the same molecule, the “Percent Growth” value (U251 CNS cancer cells; log10 conc -6.0, 1 µM) was 16% and 7%, the “Percent Growth” value (U251 CNS cancer cells; log10 conc -7.0, 0.1 µM) was -16% and the “Percent Growth” value (U251 CNS cancer cells; log10 conc -8.0, 0.01 µM) was 1% and 4%. The GI50 (SF-268 CNS cancer cells) was < 10 nM, the CC50 (SF-268 CNS cancer cells; human, sf-268 cns cancer cells) was > 100000 nM and the “Percent Growth” value (SF-268 CNS cancer cells; log10 conc -5.0, 10 µM) was 14% and 25%. For the same molecule, the “Percent Growth” value (SF-268 CNS cancer cells; log10 conc -6.0, 1 µM) was 18% and 30%, the “Percent Growth” value (SF-268 CNS cancer cells; log10 conc -7.0, 0.1 µM) was 29% and 31% and the “Percent Growth” value (SF-268 CNS cancer cells; log10 conc -8.0, 0.01 µM) was 43% and 32%. For the same molecule, the GI50 [11] was < 10 nM, the TGI [11] was > 100000 nM and the GI50 [12] was < 10 nM. For the same molecule, the CC50 ([12]; read-out: LC50) was > 100000 nM, the activity at 100 µM ([12]; read-out: Percent Growth, log10 conc -4.0) was 6% and the activity at 10 µM ([12]; read-out: Percent Growth, log10 conc -5.0) was 26%. For the same molecule, the activity at 1 µM ([12]; read-out: Percent Growth, log10 conc -6.0) was 26%, the activity at 0.1 µM ([12]; read-out: Percent Growth, log10 conc -7.0) was 22% and the GI50 (tumor cell lines) was < 10 nM. The “activity in the NCI screen” value (tumor cell lines) was “activity similar to 7-acetamidoallocolchinone; also recorded: active”, the “Percent Growth” value ([13]; log10 conc -5.0) was -19% and the “Percent Growth” value ([13]; log10 conc -7.0, 0.1 µM) was 3%. For the same molecule, the GI50 (A498 renal cancer cells [14]; A498) was 10.4 nM, the CC50 (A498 renal cancer cells [14]; A498, read-out: LC50) was 50000 nM and the GI50 ([15]; OVCAR-3) was < 10 nM. For the same molecule, the CC50 ([15]; OVCAR-3, read-out: LC50) was > 100000 nM, the TGI (SF-295 CNS cancer cells [16]) was > 100000 nM and the “Percent Growth” value (SF-295 CNS cancer cells [16]; log10 conc -4.0, 100 µM) was 19%. For the same molecule, the “Percent Growth” value (SF-295 CNS cancer cells [16]; log10 conc -5.0, 10 µM) was 12%, the GI50 [17] was < 10 nM and the TGI [17] was > 10 nM. The CC50 ([17]; human, ovcar-8 ovarian cancer cells) was > 100000 nM, the GI50 (SNB-19 CNS cancer cells) was < 10 nM and the CC50 (SNB-19 CNS cancer cells; human, snb-19 cns cancer cells) was > 100000 nM. For the same molecule, the “Percent Growth” value (SNB-19 CNS cancer cells; log10 conc -4.0, 100 µM) was 19%, the “Percent Growth” value (SNB-19 CNS cancer cells; log10 conc -6.0, 1 µM) was 13% and 26% and the “Percent Growth” value (SNB-19 CNS cancer cells; log10 conc -8.0, 0.01 µM) was 18% and 25%. For the same molecule, the GI50 (MOLT-4 leukemia cells) was < 10 nM, the TGI (MOLT-4 leukemia cells) was > 100000 nM and the CC50 (MOLT-4 leukemia cells; human, molt-4 leukemia cells) was > 100000 nM. For the same molecule, the “Percent Growth” value (MOLT-4 leukemia cells; log10 conc -4.0, 100 µM) was 2% and 6%, the “Percent Growth” value (MOLT-4 leukemia cells; log10 conc -5.0) was 9% and the “Percent Growth” value (MOLT-4 leukemia cells; log10 conc -6.0, 1 µM) was 12% and 8%. The “Percent Growth” value (MOLT-4 leukemia cells; log10 conc -7.0, 0.1 µM) was 12% and 8%, the “Percent Growth” value (MOLT-4 leukemia cells; log10 conc -8.0, 0.01 µM) was 16% and 9% and the GI50 (SNB-75 CNS cancer cells) was < 10 nM. For the same molecule, the CC50 (SNB-75 CNS cancer cells; human, snb-75 cns cancer cells) was > 100000 nM, the “Percent Growth” value (SNB-75 CNS cancer cells; log10 conc -4.0, 100 µM) was 18% and the “Percent Growth” value (SNB-75 CNS cancer cells; log10 conc -8.0) was -28%. For the same molecule, the GI50 ([18]; Homo sapiens, MCF7) was < 10 nM, the “Percent Growth” value ([18]; log10 conc -4.0, 100 µM) was -22% and -23% and the GI50 ([19]; HOP-62) was < 10 nM. The CC50 ([19]; HOP-62, read-out: LC50) was > 100000 nM, the activity at 100 µM ([19]; HOP-62, read-out: Percent Growth, log10 conc -4.0) was 43% and the activity at 10 µM ([19]; HOP-62, read-out: Percent Growth, log10 conc -5.0) was 41%. The activity at 1 µM ([19]; HOP-62, read-out: Percent Growth, log10 conc -6.0) was 36%.

With `COc1cc2c(c(OC)c1OC)-c1ccc(C(C)=O)cc1C(N)CC2` (centres unmarked) [7-Amino-allocolchinone] the IC50 (tubulin) was 3000 nM.

For `COc1cc2c(c(OC)c1OC)-c1ccc(OC)c(=O)cc1[C@@H](NC(C)=O)CC2` [Colchicine, reference compound], the GI50 [1] was < 10 nM, the activity at 10 µM [1] was 13% and the activity at 1 µM [1] was 9%. For the same molecule, the activity at 0.1 µM [1] was 7%, the activity at 0.01 µM [1] was 48% and the “Percent Growth” value ([17]; log10 conc -4.0, 100 µM) was -39%. For the same molecule, the “Percent Growth” value ([17]; log10 conc -8.0) was 99%, the GI50 (MOLT-4 leukemia cells) was 35.6 nM and the “Percent Growth” value (MOLT-4 leukemia cells; log10 conc -4.0, 100 µM) was 1%. For the same molecule, the “Percent Growth” value (MOLT-4 leukemia cells; log10 conc -5.0) was 0%, the “Percent Growth” value (MOLT-4 leukemia cells; log10 conc -6.0, 1 µM) was 1% and the “Percent Growth” value (MOLT-4 leukemia cells; log10 conc -8.0) was 98%.
